The values below come from ChEMBL document CHEMBL1201862, “PubChem BioAssay data set” (2004).

Holding throughout (experiment): growth of human tumour cells (NCI), 48 h
Experiment [1] concerns BT-549.
In experiment [2] the test system is XF498.
In experiment [3] the test system is SNB-78.
In experiment [4] the test system is LXFL 529.
The subject of experiment [5] is DMS-273.
Experiment [6] deals with M19-MEL.
For experiment [7], the system named is DMS-114.
For experiment [8], the system named is HOP-18.

Where “and” joins values, the source holds several entries; their conditions need not be identical. Equal values may be shown once.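 Where inhibition never reached the appropriate level, the endpoint shown equals the highest concentration tested. Otherwise, values were interpolated linearly from a five-concentration, 48-hour dose response in 96-well plates. GI50 marks 50% less growth.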 Calls of active or inactive are those of the source. No stated cut-off is given here; in the data, active = GI50 up to about 1.1 µM and inactive = higher. Bounds are passed on as bounds.

In the case of `O=C(O)c1ccc(C(O)(c2ccccc2)c2ccccc2)cc1`, in experiment [1], the GI50 was > 100 µM (inactive).

As for `Oc1ccc(-c2nc3ccccc3s2)cc1`, in experiment [1], the GI50 was 50.2 µM (inactive).

Turning to `CC(C)(Oc1ccc(/C=C/C(=O)c2ccccc2)cc1)C(=O)Nc1c(Cl)cccc1Cl`, the GI50 was > 10 µM (inactive) in experiment [2]; > 10 µM (inactive) in experiment [3]; 6.56 µM (inactive) in experiment [4]; 8.07 µM (inactive) in experiment [5]; > 10 µM (inactive) in experiment [6]; 8.47 µM (inactive) in experiment [7]. Besides, the GI50 in experiment [8] was > 10 µM (inactive).

`CSC1=C(C#N)C(=O)N(c2ccc(C)cc2)C(=O)C1C#N` (centres undefined): in experiment [1], the GI50 was > 100 µM (inactive).

`Cc1nc(Nc2ccc(Cl)cc2)sc1C(=O)NNC(=O)C(=O)NN`: the GI50 is 26.9 µM (inactive) in experiment [3]; 18.3 µM (inactive) in experiment [4]; 19.1 µM (inactive) in experiment [5]; 19.2 µM (inactive) in experiment [6]; 20.4 µM (inactive) in experiment [7]; 16.2 µM (inactive) in experiment [8].

With `COc1cc(/C=C/C(=O)c2cccc3ccccc23)cc(OC)c1OC`, the GI50 was 7.74 µM (inactive) in experiment [2]; 3.44 µM (inactive) in experiment [3]; 2.73 µM (inactive) in experiment [4]; 3.59 µM (inactive) in experiment [5]; 7.33 µM (inactive) in experiment [6]; 12.4 µM (inactive) in experiment [8].

As to `O=c1c(Nc2ccccc2)cn(CCOc2ccccc2)c(=O)n1CCOc1ccccc1`, the GI50 in experiment [1] was 20.8 µM (inactive).

Turning to `Cc1cccc(C)c1NC(=O)C1C(=O)N(c2c(C)cccc2C)C(=O)/C1=N\NC(N)=S` (centres undefined), the GI50 in experiment [3] was > 100 µM (inactive); in experiment [4] it was > 100 µM (inactive); in experiment [6] it was > 100 µM (inactive); in experiment [7] it was 36.1 µM (inactive); in experiment [8] it was 17.3 µM (inactive).

For `COc1ccc([C@@]23Oc4cc(OC)cc(OC)c4[C@]2(O)[C@H](O)[C@H](C(N)=O)[C@H]3c2ccccc2)cc1` [DIDESMETHYLROCAGLAMIDE], the GI50 in experiment [1] was < 0.0112 µM (active).

Regarding `O=c1c2ncn(C3CCCCO3)c2n(-c2ccccc2)c(=S)n1-c1ccccc1` (centres undefined), the GI50 in experiment [1] was 23 µM (inactive).

As to `CC1(CF)SCc2nc3ccccc3n21` (centres undefined), the GI50 in experiment [1] is > 100 µM (inactive).

As for `OCCCNCc1ccccn1`, in experiment [1], the GI50 was > 100 µM (inactive).

Regarding `CC(C)(CO)CNc1nc(N)nc(Cl)c1C=O`, in experiment [1], the GI50 is 41.1 µM (inactive).

As for `COc1ccc(OC(C)C(=O)O)c2c1CCCC2=O` (centres undefined), the GI50 in experiment [2], in experiment [3], in experiment [4], in experiment [5], in experiment [6] and in experiment [7] was > 100 µM (inactive) throughout.

As to `OC[C@]1(n2nc3ccccc3n2)OC[C@@H]1c1ccccc1`, the GI50 in experiment [1] was 28.8 µM (inactive).

As to `c1ccc2c(c1)ncn2C1CCCCO1` (centres undefined), the GI50 in experiment [1] is > 100 µM (inactive).

As for `CC(=O)N(C(C)=O)n1c(Cc2ccc(Cl)cc2)n[nH]c1=O`, the GI50 in experiment [1] is > 100 µM (inactive).

For the compound `COc1cc(/C=C2\C(=O)N(C(=O)c3ccc(NC(C)=O)cc3)N=C2C)ccc1O`, the GI50 in experiment [3], in experiment [5], in experiment [6], in experiment [7] and in experiment [8] was > 100 µM (inactive) in each case.

For the compound `O=C(c1no[n+]([O-])c1C(=O)c1csc2ccccc12)c1csc2ccccc12`, the GI50 in experiment [1] was 6.55 µM (inactive).

Take `CC(=O)Nc1ccc(S(=O)(=O)Nc2nnc(S(N)(=O)=O)s2)cc1`: in experiment [1], the GI50 is > 100 µM (inactive).

Take `Cc1ccc(S(=O)(=O)ON=C2CC(c3ccccc3)N(C)C(c3ccccc3)C2)cc1` (centres undefined): the GI50 in experiment [3] was 19.1 µM (inactive) and 23.1 µM (inactive); in experiment [4], 15.6 µM (inactive) and 16.6 µM (inactive); in experiment [5], 20.7 µM (inactive) and 19.5 µM (inactive); in experiment [6], 20.8 µM (inactive) and 21.7 µM (inactive); in experiment [7], 14.7 µM (inactive).

As for `O=S(=O)(O)c1ccc(/N=N/c2ccc(/N=N/c3c(O)ccc4cc(S(=O)(=O)O)ccc34)cc2)cc1`, the GI50 in experiment [1] is > 100 µM (inactive).

For the compound `CCC1CN2CCc3c([nH]c4ccccc34)[C@@](C(=O)OC)(c3cc4c(cc3OC)N(C)C3C(O)(C(=O)OC)C(C(=O)OC)C5(CC)C=CCN6CCC43C65)C[C@@H](C2)[C@@H]1C(C)(C)C` (some centres undefined), the GI50 in experiment [1] is 1.61 µM (inactive).

Take `CCOP(=O)(OCC)C(Nc1cccc(F)c1)c1ccc(N(C)C)cc1` (centres undefined): the GI50 in experiment [1] was > 100 µM (inactive).

Regarding `C=CCSC1=N/C(=C\c2ccc(C)cc2)C(=O)N1CC=C`, the GI50 in experiment [1] is 23.6 µM (inactive).

For the compound `CCOC(=O)c1cc(C2=CCNC2=O)c(-c2cc(C)no2)[nH]1`, in experiment [1], the GI50 was > 100 µM (inactive).

On to `NC1=NC(=O)/C(=C2\CCNC(=O)c3[nH]c(Br)cc32)N1` [HYMENIALDISINE], for which the GI50 in experiment [2] was > 100 µM (inactive); in experiment [1] it was 10.4 µM (inactive); in experiment [3] it was 86.3 µM (inactive); in experiment [5], > 85.5 µM (inactive); in experiment [6], 48.5 µM (inactive); in experiment [7], 13 µM (inactive). Further, the GI50 in experiment [8] was > 45.1 µM (inactive).

With `CC(C)c1ccc(/C=C2/C=C(c3ccc4ccccc4c3)OC2=O)cc1`, the GI50 in experiment [1] was 33.3 µM (inactive).

For the compound `Cc1cc2c(c(O)c1-c1c(C)cc(O)c3c1C(=O)C=CC3=O)C(=O)C=CC2=O`, the GI50 in experiment [1] was 2.61 µM (inactive).

On to `Cc1ccc(S[C@@H](C)[C@@](O)(C(N)=O)c2ccccc2)cc1`, for which, in experiment [1], the GI50 was 30.1 µM (inactive).

Consider `Cc1cc(C)n(CN(Cn2nc(C)cc2C)c2ccc(N(Cn3nc(C)cc3C)Cn3nc(C)cc3C)cc2)n1`, for which the GI50 in experiment [1] was 19.2 µM (inactive).

Take `OCC1C(/C=C/c2ccoc2)ON2CCCC12` (centres undefined): the GI50 was > 100 µM (inactive) in experiment [2]; > 100 µM (inactive) in experiment [3]; > 100 µM (inactive) in experiment [4]; > 100 µM (inactive) in experiment [5]; > 100 µM (inactive) in experiment [6]; 0.279 µM (active) in experiment [8].

In the case of `Cc1c2c(n(CC(c3ccccc3)c3ccccc3)c1C)NN=C(C#N)S2(=O)=O`, the GI50 in experiment [1] was > 100 µM (inactive).

As for `COc1ccc(-c2c(C3=NCCCN3)nnn2-c2ccc([N+](=O)[O-])cc2)cc1`, the GI50 in experiment [3], in experiment [4], in experiment [5], in experiment [6], in experiment [7] and in experiment [8] was > 100 µM (inactive) throughout.

`COC(=O)c1ccccc1CC1Cc2ccc3c(c2C1)CCC3` (centres undefined): the GI50 in experiment [1] was 60.8 µM (inactive).

`COC1=C2CC(C)CC(OC)[C@@H](OC(=O)CCN)[C@H](C)/C=C(\C)C(OC(N)=O)C(OC)/C=C\C=C(/C)C(=O)NC(=CC1=O)C2=O` (some centres undefined): the GI50 in experiment [1] is 4.91 µM (inactive).

For `COc1ccc(Cn2c(=O)c(OC)c(C)c3cc4ccccc4cc32)cc1`, in experiment [1], the GI50 was 34.3 µM (inactive).

For `N#CC[N+]1(Cc2ccccn2)CCCC1.O=S(=O)([O-])c1ccccc1`, the GI50 in experiment [1] is > 100 µM (inactive).

Consider `CCc1ccccc1NC(=O)C1=C(C)NC(C)=C(C(=O)Nc2ccccc2CC)C1c1ccc(NC(C)=O)cc1`, for which the GI50 is 33.3 µM (inactive) in experiment [3], 33 µM (inactive) in experiment [4], 32.7 µM (inactive) in experiment [6] and 28.1 µM (inactive) in experiment [7].

Regarding `CCNC(=O)Nc1ccccn1`, the GI50 in experiment [1] is > 100 µM (inactive).

Consider `[O-]c1c[n+](CCCC[n+]2cc([O-])on2)no1`, for which, in experiment [1], the GI50 is > 100 µM (inactive).

Regarding `COC(=O)/C=C\C(C#N)(C#N)/N=C/c1ccc(C)s1`, the GI50 in experiment [1] was 2.83 µM (inactive).

In the case of `CC(C)=CCSC1CC2C(CC1(C)O)C2(C)C` (centres undefined), the GI50 in experiment [2] was 4.84 µM (inactive) and 4.62 µM (inactive); in experiment [3], 23.4 µM (inactive) and 12 µM (inactive); in experiment [4], 17.3 µM (inactive) and 14 µM (inactive); in experiment [5], 15.8 µM (inactive) and 9.98 µM (inactive); in experiment [7], 15.6 µM (inactive) and 10.1 µM (inactive).

For the compound `Nc1nc(Cl)c(N)c(NCC2(CO)CC(O)C2)n1` (centres undefined), in experiment [1], the GI50 was > 100 µM (inactive).

With `CCN(CC)CCCn1cnc2ncccc2c1=O`, the GI50 in experiment [3], in experiment [4], in experiment [5], in experiment [6] and in experiment [7] was > 100 µM (inactive) in each case.

`CSc1nc(SC)c2c(CO)c(Br)n(Cc3ccccc3)c2n1`: in experiment [1], the GI50 is 21.6 µM (inactive).

On to `O=C1c2cccc3cccc(c23)C2NCCCN12` (centres undefined), for which, in experiment [1], the GI50 was > 100 µM (inactive).

`COC(=O)CCCCC/C(=C\C(=O)C(Cl)(Cl)Cl)OC`: the GI50 in experiment [1] was 38.9 µM (inactive).

As to `Cc1ccc(-c2cc(=S)n(-c3ccccc3)c3[nH]c(=S)n(-c4ccccc4)c(=N)c23)cc1`, the GI50 in experiment [4], in experiment [5], in experiment [6] and in experiment [7] was > 100 µM (inactive) each time.

For `C1=N/CCNCCNCC/N=C/c2ccccc2OCc2cccc(n2)COc2ccccc2/1`, the GI50 in experiment [1] is 38.5 µM (inactive).

In the case of `CSc1nnc(SC)nn1`, the GI50 in experiment [1] is 16 µM (inactive).

Regarding `Nc1ccc2nc3ccc(=O)cc-3n(-c3ccccc3)c2c1`, the GI50 in experiment [1] was 73.8 µM (inactive).

Turning to `COc1cc2c(cc1OC)C(SC)C(=O)N(Cc1cccc(OC)c1OC)CC2` (centres undefined), the GI50 in experiment [1] is 0.755 µM (active); in experiment [3] it was 0.359 µM (active); in experiment [4], 2.84 µM (inactive); in experiment [5], 0.553 µM (active); in experiment [6], 1.2 µM (inactive); in experiment [7], 0.621 µM (active). The GI50 in experiment [8] was 1.49 µM (inactive).

Take `O=C(c1ccccc1)c1nnn(Cc2ccccc2Cn2nnc(C(=O)c3ccccc3)c2C(=O)c2ccccc2)c1C(=O)c1ccccc1`: the GI50 in experiment [3] was > 100 µM (inactive); in experiment [4], > 100 µM (inactive); in experiment [5], > 100 µM (inactive); in experiment [6] it was > 100 µM (inactive); in experiment [7], 81.1 µM (inactive); in experiment [8], > 100 µM (inactive).

On to `COC(=O)c1cc(C(=CCC[C@H]2CC[C@@]3(C)C(CCC4C3CC[C@@]3(C)C4CC[C@@H]3C(C)CCCC(C)C)C2)c2cc(Cl)c(O)c(C(=O)OC)c2)cc(Cl)c1O` (some centres undefined), for which the GI50 in experiment [1] was > 10 µM (inactive).

Turning to `Nc1cc(C(=O)NC2C3CC4CC(C3)CC2C4)nc(S)n1` (centres undefined), the GI50 in experiment [2], in experiment [3], in experiment [4] and in experiment [6] was > 100 µM (inactive) throughout.

As to `Cc1ncc(CO)c(CN)c1O`, the GI50 in experiment [1] is > 100 µM (inactive).
